Results reported in ChEMBL document CHEMBL4673401 (ACS Med Chem Lett, 2021).
pIC50: −log10 of the molar value.

Columns and labels:
[1] = target: T1, Indoleamine 2,3-dioxygenase 1 (Homo sapiens, UniProt P14902); assay: Inhibition of human IDO1 expressed in Escherichia coli Rosetta using tryptophan as substrate incubated for 1 hr by methylene blue based assay
[2] = target: Tryptophan 2,3-dioxygenase (Homo sapiens, UniProt P48775); assay: Inhibition of human TDO expressed in Escherichia coli Rosetta using tryptophan as substrate incubated for 1 hr by methylene blue based assay
[3] = target: T1, Indoleamine 2,3-dioxygenase 1; assay: Inhibition of IDO1 in IFNgamma-stimulated human HeLa cells using L-tryptophan as substrate measured after 48 hrs
[4] = AUC in Beagle dog at 2 mg/kg, po measured up to 24 hrs; format: ADME, organism-based, Canis lupus familiaris; parameters: route oral, dose 2 mg/kg, time <=24; details: in vivo
[5] = Half life in Beagle dog at 2 mg/kg, po measured up to 24 hrs; format: ADME, organism-based, Canis lupus familiaris; details: in vivo
[6] = Cmax in Beagle dog at 2 mg/kg, po measured up to 24 hrs; format: ADME, organism-based, Canis lupus familiaris; parameters: route oral, dose 2 mg/kg, time <=24; details: in vivo
[7] = AUC in Sprague-Dawley rat at 3 mg/kg, po measured up to 24 hrs; format: ADME, organism-based; parameters: route oral, dose 3 mg/kg, time <=24; details: in vivo
[8] = Half life in Sprague-Dawley rat at 3 mg/kg, po measured up to 24 hrs; format: ADME, organism-based; details: in vivo
[9] = Cmax in Sprague-Dawley rat at 3 mg/kg, po measured up to 24 hrs; format: ADME, organism-based; parameters: route oral, dose 3 mg/kg, time <=24; details: in vivo
[10] = Protein binding in dog plasma by rapid equilibrium dialysis method; format: ADME, cell-free, Canis lupus familiaris; details: read-out: PPB (converted)
[11] = test system: MC-38; assay: Antitumor activity against mouse MC38 cells xenograted in po dosed humanized PD-1 mouse assessed as tumor growth inhibition administered twice for 14 days in combination with PD-1 antibody at 3 mg/kg, ip qod for 8 days by digital caliper method; format: functional, organism-based; details: time 14.0 day
[12] = Oral bioavailability in Sprague-Dawley rat at 3 mg/kg measured up to 24 hrs; format: ADME, organism-based; details: in vivo
[13] = target: Indoleamine 2,3-dioxygenase 1 (Mus musculus) (UniProt P28776); assay: In vivo inhibition of IDO1 in C57BL/6 mouse assessed as reduction in kynurenine level in plasma at 300 mg/kg, po administered as single dose measured after 2 hrs relative to control; format: functional, organism-based
[14] = test system: MC-38; assay: Antitumor activity against mouse MC38 cells xenograted in humanized PD-1 mouse assessed as tumor growth inhibition at 600 mg/kg, po bid for 14 days in combination with PD-1 antibody at 3 mg/kg, ip qod for 8 days by digital caliper method relative to control; format: functional; details: MC-38, 336 h, time 14 day, read-out: TGI
[15] = Oral bioavailability in C57BL/6 mouse at 3 mg/kg measured up to 24 hrs; format: ADME, organism-based; details: in vivo
[16] = Oral bioavailability in Beagle dog at 2 mg/kg measured up to 24 hrs; format: ADME, organism-based, Canis lupus familiaris; details: in vivo
[17] = target: Cytochrome P450 3A4 (Homo sapiens, UniProt P08684); assay: Inhibition of CYP3A4 in human liver microsomes using midazolam as substrate incubated for 10 mins in presence of NADPH by UHPLC-MS/MS analysis; format: ADME
[18] = target: Voltage-gated inwardly rectifying potassium channel KCNH2 (Homo sapiens, UniProt Q12809); assay: Inhibition of human ERG expressed in CHO-K1 cells at -90 mV holding potential by automated patch-clamp method; format: cell-based
[19] = Clearance in C57BL/6 mouse at 3 mg/kg, po measured up to 24 hrs; format: ADME, organism-based; details: in vivo
[20] = Half life in human liver microsomes; format: ADME, Microsome
[21] = AUC in C57BL/6 mouse at 3 mg/kg, po measured up to 24 hrs; format: ADME, organism-based; parameters: route oral, dose 3 mg/kg, time <=24; details: in vivo
[22] = target: T2, Cytochrome P450 1A2 (Homo sapiens, UniProt P05177); assay: Inhibition of CYP1A2 in human liver microsomes using phenacetin as substrate incubated for 10 mins in presence of NADPH by UHPLC-MS/MS analysis; format: ADME
T2 sequence (P05177 whole entry): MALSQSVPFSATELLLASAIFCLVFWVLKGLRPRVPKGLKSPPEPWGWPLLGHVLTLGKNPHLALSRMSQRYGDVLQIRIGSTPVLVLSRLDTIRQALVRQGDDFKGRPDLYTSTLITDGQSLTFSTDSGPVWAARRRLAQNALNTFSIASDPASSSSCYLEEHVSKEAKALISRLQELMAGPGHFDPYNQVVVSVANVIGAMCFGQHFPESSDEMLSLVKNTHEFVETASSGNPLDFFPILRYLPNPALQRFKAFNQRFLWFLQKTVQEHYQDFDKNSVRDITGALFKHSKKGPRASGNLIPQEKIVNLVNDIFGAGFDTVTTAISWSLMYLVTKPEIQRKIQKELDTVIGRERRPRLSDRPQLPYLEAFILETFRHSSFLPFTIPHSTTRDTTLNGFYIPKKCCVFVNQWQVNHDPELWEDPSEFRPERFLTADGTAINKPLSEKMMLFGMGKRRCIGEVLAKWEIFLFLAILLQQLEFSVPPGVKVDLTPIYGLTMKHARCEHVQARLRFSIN

[23] = Clearance in Beagle dog at 2 mg/kg, po measured up to 24 hrs; format: ADME, organism-based, Canis lupus familiaris; details: in vivo
[24] = target: Cytochrome P450 2D6 (Homo sapiens, UniProt P10635); assay: Inhibition of CYP2D6 in human liver microsomes using dextromethorphan as substrate incubated for 10 mins in presence of NADPH by UHPLC-MS/MS analysis; format: ADME
[25] = Protein binding in human plasma by rapid equilibrium dialysis method; format: ADME, cell-free; details: read-out: PPB (converted)
[26] = target: Cytochrome P450 2C19 (Homo sapiens, UniProt P33261); assay: Inhibition of CYP2C19 in human liver microsomes using S-mephenytoin as substrate incubated for 10 mins in presence of NADPH by UHPLC-MS/MS analysis; format: ADME; details: read-out: INH
[27] = Protein binding in rat plasma by rapid equilibrium dialysis method; format: ADME, cell-free; details: read-out: PPB (converted)
[28] = test system: MC-38; assay: Antitumor activity against mouse MC38 cells xenograted in humanized PD-1 mouse assessed as tumor growth inhibition at 150 mg/kg, po bid for 14 days in combination with PD-1 antibody at 3 mg/kg, ip qod for 8 days by digital caliper method relative to control; format: functional; details: MC-38, 336 h, time 14 day, read-out: TGI
[29] = target: Cytochrome P450 2C9 (Homo sapiens, UniProt P11712); assay: Inhibition of CYP2C9 in human liver microsomes using tolbutamide as substrate incubated for 10 mins in presence of NADPH by UHPLC-MS/MS analysis; format: ADME
[30] = Clearance in Sprague-Dawley rat at 3 mg/kg, po measured up to 24 hrs; format: ADME, organism-based; details: in vivo
[31] = test system: MC-38; assay: Antitumor activity against mouse MC38 cells xenograted in humanized PD-1 mouse assessed as tumor growth inhibition at 300 mg/kg, po bid for 14 days in combination with PD-1 antibody at 3 mg/kg, ip qod for 8 days by digital caliper method relative to control; format: functional; details: MC-38, 336 h, time 14 day, read-out: TGI
[32] = Half life in rat liver microsomes; format: ADME, Microsome
[33] = Cmax in C57BL/6 mouse at 3 mg/kg, po measured up to 24 hrs; format: ADME, organism-based; parameters: route oral, dose 3 mg/kg, time <=24; details: in vivo
[34] = Toxicity in humanized PD-1 mouse xenografted with mouse MC38 cells assessed as effect on body weight at 150 to 600 mg/kg, po bid for 14 days in combination with PD-1 antibody at 3 mg/kg, ip qod for 8 days; format: organism-based; details: in vivo, 336 h, dose 150-600 mg/kg, time 14 day
[35] = Half life in C57BL/6 mouse at 3 mg/kg, po measured up to 24 hrs; format: ADME, organism-based; details: in vivo

T1 sequence (P14902 whole entry): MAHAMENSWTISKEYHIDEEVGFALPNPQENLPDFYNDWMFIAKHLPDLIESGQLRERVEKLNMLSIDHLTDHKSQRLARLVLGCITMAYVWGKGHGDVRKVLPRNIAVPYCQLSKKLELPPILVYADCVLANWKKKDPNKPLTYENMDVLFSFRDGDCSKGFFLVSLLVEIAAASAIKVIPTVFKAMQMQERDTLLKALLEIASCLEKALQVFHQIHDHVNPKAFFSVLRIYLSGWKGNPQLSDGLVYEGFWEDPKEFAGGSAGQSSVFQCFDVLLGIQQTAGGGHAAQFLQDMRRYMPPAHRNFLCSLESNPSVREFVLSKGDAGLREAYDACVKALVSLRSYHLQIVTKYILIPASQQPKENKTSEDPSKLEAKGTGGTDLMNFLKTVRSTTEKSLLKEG
Sequence of Tryptophan 2,3-dioxygenase (P48775 whole entry): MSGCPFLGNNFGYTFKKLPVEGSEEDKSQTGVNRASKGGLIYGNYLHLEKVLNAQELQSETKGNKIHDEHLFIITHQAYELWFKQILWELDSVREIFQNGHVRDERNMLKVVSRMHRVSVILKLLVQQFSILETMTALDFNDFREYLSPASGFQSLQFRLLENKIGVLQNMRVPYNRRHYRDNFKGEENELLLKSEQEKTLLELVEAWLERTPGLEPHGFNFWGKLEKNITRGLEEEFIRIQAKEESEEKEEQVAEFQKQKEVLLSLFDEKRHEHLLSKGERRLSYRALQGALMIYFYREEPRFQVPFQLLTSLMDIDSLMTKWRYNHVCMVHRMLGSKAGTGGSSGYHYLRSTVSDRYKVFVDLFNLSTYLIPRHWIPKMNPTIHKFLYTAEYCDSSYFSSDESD
Sequence of Indoleamine 2,3-dioxygenase 1 (Mus musculus) (P28776 whole entry, looked up): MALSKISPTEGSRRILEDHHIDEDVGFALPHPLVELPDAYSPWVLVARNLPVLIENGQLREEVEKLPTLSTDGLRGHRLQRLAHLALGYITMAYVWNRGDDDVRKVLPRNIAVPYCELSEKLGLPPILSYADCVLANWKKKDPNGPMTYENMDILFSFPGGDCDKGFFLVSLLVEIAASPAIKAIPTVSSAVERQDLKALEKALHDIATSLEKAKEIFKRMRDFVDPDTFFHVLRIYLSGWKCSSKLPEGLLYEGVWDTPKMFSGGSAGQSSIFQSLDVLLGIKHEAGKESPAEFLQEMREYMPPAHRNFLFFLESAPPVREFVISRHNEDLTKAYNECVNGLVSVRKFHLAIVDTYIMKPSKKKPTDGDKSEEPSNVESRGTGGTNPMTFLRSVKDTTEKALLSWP
Sequence of Voltage-gated inwardly rectifying potassium channel KCNH2 (Q12809 whole entry): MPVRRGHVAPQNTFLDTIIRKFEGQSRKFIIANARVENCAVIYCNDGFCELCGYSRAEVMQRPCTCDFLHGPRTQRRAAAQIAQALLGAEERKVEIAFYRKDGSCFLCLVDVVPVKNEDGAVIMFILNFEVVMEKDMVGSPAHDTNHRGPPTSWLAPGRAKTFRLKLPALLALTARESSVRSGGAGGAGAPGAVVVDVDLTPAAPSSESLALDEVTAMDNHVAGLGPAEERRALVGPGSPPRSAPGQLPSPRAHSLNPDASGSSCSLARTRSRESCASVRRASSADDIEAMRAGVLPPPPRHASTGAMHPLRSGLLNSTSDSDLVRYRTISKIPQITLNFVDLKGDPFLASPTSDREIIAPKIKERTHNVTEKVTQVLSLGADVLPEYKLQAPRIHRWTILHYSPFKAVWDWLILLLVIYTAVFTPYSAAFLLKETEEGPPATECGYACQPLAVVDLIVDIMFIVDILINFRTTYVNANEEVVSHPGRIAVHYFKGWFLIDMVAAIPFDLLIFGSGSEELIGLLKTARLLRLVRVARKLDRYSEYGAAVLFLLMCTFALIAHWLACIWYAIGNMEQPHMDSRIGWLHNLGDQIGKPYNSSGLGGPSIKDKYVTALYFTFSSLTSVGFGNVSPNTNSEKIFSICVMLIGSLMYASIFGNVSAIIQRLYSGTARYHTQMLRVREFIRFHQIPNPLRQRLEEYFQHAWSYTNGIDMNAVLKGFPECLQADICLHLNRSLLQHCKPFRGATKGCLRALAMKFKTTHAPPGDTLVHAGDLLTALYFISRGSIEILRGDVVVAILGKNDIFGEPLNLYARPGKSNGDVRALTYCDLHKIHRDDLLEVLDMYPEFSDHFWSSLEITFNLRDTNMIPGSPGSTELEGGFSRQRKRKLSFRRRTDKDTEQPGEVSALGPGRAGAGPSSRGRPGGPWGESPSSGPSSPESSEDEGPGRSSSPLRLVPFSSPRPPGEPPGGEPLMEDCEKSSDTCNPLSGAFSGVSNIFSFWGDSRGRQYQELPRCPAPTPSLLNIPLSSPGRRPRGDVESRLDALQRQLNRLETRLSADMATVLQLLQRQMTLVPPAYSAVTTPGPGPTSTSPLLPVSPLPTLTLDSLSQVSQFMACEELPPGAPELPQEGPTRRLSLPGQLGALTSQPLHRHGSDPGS
Sequence of Cytochrome P450 2D6 (P10635 whole entry): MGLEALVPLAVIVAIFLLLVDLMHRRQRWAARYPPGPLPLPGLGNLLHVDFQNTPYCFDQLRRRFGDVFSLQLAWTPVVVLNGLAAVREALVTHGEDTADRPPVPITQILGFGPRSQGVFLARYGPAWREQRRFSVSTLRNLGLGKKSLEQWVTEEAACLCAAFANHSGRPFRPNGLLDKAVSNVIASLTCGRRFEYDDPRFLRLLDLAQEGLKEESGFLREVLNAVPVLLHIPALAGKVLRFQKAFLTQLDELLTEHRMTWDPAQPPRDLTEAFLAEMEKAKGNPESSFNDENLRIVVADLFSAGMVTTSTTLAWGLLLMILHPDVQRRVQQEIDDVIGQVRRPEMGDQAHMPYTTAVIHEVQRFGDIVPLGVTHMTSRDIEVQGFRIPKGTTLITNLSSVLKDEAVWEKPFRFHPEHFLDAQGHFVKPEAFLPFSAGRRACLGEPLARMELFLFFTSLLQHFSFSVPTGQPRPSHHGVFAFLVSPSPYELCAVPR
Sequence of Cytochrome P450 3A4 (P08684 whole entry): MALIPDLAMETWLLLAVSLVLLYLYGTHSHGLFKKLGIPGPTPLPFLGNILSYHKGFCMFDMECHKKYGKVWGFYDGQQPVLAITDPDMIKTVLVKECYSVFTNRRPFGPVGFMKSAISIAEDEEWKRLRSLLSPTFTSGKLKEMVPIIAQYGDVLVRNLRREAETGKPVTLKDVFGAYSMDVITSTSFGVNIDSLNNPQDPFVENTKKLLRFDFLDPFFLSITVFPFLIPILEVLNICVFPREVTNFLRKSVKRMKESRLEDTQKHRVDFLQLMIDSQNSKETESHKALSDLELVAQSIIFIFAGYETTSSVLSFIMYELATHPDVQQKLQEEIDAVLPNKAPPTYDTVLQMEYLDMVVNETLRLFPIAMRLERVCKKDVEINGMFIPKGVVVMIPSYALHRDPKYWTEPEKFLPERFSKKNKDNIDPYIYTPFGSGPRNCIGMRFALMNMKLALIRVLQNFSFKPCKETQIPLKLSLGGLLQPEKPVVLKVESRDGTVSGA
Sequence of Cytochrome P450 2C19 (P33261 whole entry): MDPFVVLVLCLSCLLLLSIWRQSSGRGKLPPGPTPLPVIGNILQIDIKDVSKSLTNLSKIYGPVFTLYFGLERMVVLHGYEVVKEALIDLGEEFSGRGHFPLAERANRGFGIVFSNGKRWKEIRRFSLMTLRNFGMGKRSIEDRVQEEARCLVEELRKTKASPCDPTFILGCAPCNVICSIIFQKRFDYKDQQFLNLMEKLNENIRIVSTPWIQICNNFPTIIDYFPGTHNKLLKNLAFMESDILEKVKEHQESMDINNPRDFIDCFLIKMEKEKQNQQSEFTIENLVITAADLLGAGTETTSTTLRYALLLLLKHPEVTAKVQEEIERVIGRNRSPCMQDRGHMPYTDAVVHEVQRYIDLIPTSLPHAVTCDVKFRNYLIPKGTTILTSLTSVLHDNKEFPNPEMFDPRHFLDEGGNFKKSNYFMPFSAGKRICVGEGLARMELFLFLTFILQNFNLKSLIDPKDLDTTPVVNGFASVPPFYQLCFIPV
Sequence of Cytochrome P450 2C9 (P11712 whole entry): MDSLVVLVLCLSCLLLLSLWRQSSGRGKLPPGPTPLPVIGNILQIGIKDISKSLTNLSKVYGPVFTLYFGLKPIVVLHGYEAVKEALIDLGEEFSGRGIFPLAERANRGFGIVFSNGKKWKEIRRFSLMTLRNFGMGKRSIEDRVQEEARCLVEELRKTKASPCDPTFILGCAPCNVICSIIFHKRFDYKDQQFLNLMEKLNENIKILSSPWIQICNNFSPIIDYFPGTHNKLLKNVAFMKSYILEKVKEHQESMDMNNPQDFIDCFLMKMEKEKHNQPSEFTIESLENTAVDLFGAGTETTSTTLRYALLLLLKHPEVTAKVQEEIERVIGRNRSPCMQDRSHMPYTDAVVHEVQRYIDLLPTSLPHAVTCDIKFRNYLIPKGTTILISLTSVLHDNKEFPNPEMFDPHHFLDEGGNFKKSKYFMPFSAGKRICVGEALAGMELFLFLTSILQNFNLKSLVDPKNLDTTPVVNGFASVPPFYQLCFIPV

O=C(/C(=N/O)Nc1ccc(F)c(Br)c1)C1CCN(S(=O)(=O)NCc2ccccc2)CC1
pIC50 [1]: 7.62
pIC50 [2]: < 4.00
pIC50 [3]: 6.58

O=C(/C(=N/O)Nc1ccc(F)c(Br)c1)C1CCN(S(=O)(=O)Nc2ccccc2)CC1
pIC50 [1]: 7.01
pIC50 [2]: 4.18
pIC50 [3]: 6.82

O=C(NC[C@H]1CC[C@H](C(=O)/C(=N/O)Nc2ccc(F)c(Br)c2)CC1)c1ccccc1
pIC50 [1]: 7.10
pIC50 [2]: 4.09
pIC50 [3]: 6.69

O=C(/C(=N/O)Nc1ccc(F)c(Br)c1)c1ccco1
pIC50 [1]: 6.33
pIC50 [2]: < 4.00
pIC50 [3]: 5.78

NS(=O)(=O)NC[C@H]1CC[C@H](C(=O)/C(=N/O)Nc2ccc(F)c(Br)c2)CC1
pIC50 [1]: 6.70
pIC50 [2]: 4.23
pIC50 [3]: 7.68

Cn1cc(-c2ccc(NC(=O)N3CCC(C(=O)/C(=N/O)Nc4ccc(F)c(Br)c4)CC3)cc2)cn1
AUC at 24 h [4]: 255 ng·h/mL
pIC50 [1]: 7.85
half-life [5]: 1.1 h
Cmax [6]: 140 ng/mL
pIC50 [2]: < 4.00
pIC50 [3]: 7.82
AUC at 24 h [7]: 1030 ng·h/mL
half-life [8]: 5.08 h
Cmax [9]: 173 ng/mL

O=C(/C(=N/O)Nc1ccc(F)c(Br)c1)C1CCN(C(=O)NCc2ccccc2)CC1
pIC50 [1]: 7.37
pIC50 [2]: 4.05
pIC50 [3]: 7.55

O=C(/C(=N/O)Nc1ccc(F)c(Br)c1)C1CCN(C(=O)c2ccccc2)CC1
pIC50 [1]: 6.97
pIC50 [2]: < 4.00
pIC50 [3]: 6.55

O=C(/C(=N/O)Nc1ccc(F)c(Br)c1)c1cncs1
pIC50 [1]: 7.29
pIC50 [2]: 4.93
pIC50 [3]: 5.75

O=C(/C(=N/O)Nc1ccc(F)c(Br)c1)C1CCCCC1
pIC50 [1]: 6.88
pIC50 [2]: 4.10
pIC50 [3]: 7.20

O=C(/C(=N/O)Nc1ccc(F)c(Br)c1)[C@H]1CC[C@H](NS(=O)(=O)Nc2ccccc2)CC1
pIC50 [1]: 6.99
pIC50 [2]: < 4.00
pIC50 [3]: 6.54

O/N=C(/CC1CCCCC1)Nc1ccc(F)c(Br)c1
pIC50 [1]: 6.30
pIC50 [2]: < 4.00
pIC50 [3]: 6.24

NS(=O)(=O)N1CCC(C(=O)/C(=N/O)Nc2ccc(F)c(Br)c2)CC1
fraction unbound [10]: 0.04
TGI [11]: Dose-dependent effect
bioavailability [12]: 58.8%
inhibition [13]: 87.8%
inhibition in vivo at 600 mg/kg [14]: 86.8%
AUC at 24 h [4]: 3630 ng·h/mL
bioavailability [15]: 44%
bioavailability [16]: 102%
INH [17]: > 10 µM
pIC50 [1]: 7.20
INH [18]: > 30 µM
half-life [5]: 3.04 h
Cmax [6]: 742 ng/mL
clearance [19]: 61.2 mL/min/kg
pIC50 [2]: 4.20
half-life [20]: 5.81 h
AUC at 24 h [21]: 358 ng·h/mL
INH [22]: > 10 µM
clearance [23]: 9.3 mL/min/kg
INH [24]: > 10 µM
fraction unbound [25]: 0.036
pIC50 [26]: < 5.00
fraction unbound [27]: 0.076
pIC50 [3]: 7.35
inhibition in vivo at 150 mg/kg [28]: 60.3%
INH [29]: > 10 µM
clearance [30]: 16.7 mL/min/kg
AUC at 24 h [7]: 1530 ng·h/mL
half-life [8]: 6.14 h
inhibition in vivo at 300 mg/kg [31]: 71.7%
half-life [32]: 1.56 h
Cmax [9]: 179 ng/mL
Cmax [33]: 127 ng/mL
Activity [34]: Non-Toxic
half-life [35]: 1.21 h

O=C(/C(=N/O)Nc1ccc(F)c(Br)c1)C1CCN(c2ccccc2)CC1
pIC50 [1]: 6.83
pIC50 [2]: < 4.00
pIC50 [3]: 5.99

O=C(Nc1ccccc1)[C@H]1CC[C@H](C(=O)/C(=N/O)Nc2ccc(F)c(Br)c2)CC1
pIC50 [1]: 6.82
pIC50 [2]: < 4.00
pIC50 [3]: 6.71

O=C(/C(=N/O)Nc1ccc(F)c(Br)c1)C1CCN(C(=O)Nc2ccccc2)CC1
pIC50 [1]: 7.40
pIC50 [2]: 4.24
pIC50 [3]: 7.27

O=C(/C(=N/O)Nc1ccc(F)c(Br)c1)c1ccccc1
pIC50 [1]: 6.39
pIC50 [2]: 4.10
pIC50 [3]: 5.85

O=C(/C(=N/O)Nc1ccc(F)c(Br)c1)c1cccs1
pIC50 [1]: 6.93
pIC50 [2]: 4.20
pIC50 [3]: 6.57
